Source: patent US20080146669A1, “Novel Chloride Channel Pore Openers” (THE UAB RESEARCH FOUNDATION, priority 2005, published 2008)

Columns and labels:
[1] = system: parental CFBE41o- monolayers; test: Ussing chamber transepithelial currents, parental CFBE41o- monolayers; type: cell-based, human; conditions: n=6, data not shown
Experimental: (§1) Cell culture DNA constructs and transfections. Baby hamster kidney (BHK) cells stably expressing wild type human CFTR (BHK-CFTR) were provided by J. Hanrahan (McGill University). BHK-CFTR cells were cultured in Dulbecco's modified Eagle's medium (DMEM (Mediatech)) supplemented with 5% fetal bovine serum (FBS) and 1 mM penicillin-streptomycin. The growth media for the BHK-CFTR cells also contained 0.5 mM methotrexate to maintain selection for CFTR-expressing cells (22). HEK-293T cells were transiently transfected with wild-type or mutant CFTR cDNA using the Lipofectamine transfection kit following manufacturer's recommendations (Invitrogen, Corp). HEK-293T cells were cultured in DMEM. All cells were grown on plastic coverslips for patch clamp recording and were used 2-3 days post-seeding. Electrophysiology and data analysis. Macroscopic and multi-channel currents were recorded in the excised, inside-out configuration. Patch pipettes were pulled from Corning 8161 glass to tip resistances of […] (macroscopic recordings) or 8-10 mOhm (micropatch studies). CFTR channels were activated following patch excision by exposure of the cytoplasmic face of the patch to catalytic subunit of protein kinase A (PKA; 110 U/ml; Promega) and Mg-ATP (1.5 mM). CFTR currents were recorded in symmetrical solution containing (in mM): 140 N-methyl-D-glucaniine-Cl, 3 MgCl2, 1 EGTA and 10 TES. […]

wild-type CFTR = wild-type CFTR (Homo sapiens, UniProt P13569); test: Micropatch (multichannel) recording of BHK-CFTR patches, opening rate and Po; type: biochemical; set-up: expressed in transfected cells; provided by J. Hanrahan (McGill University)
wild-type CFTR, sequence (P13569 whole entry): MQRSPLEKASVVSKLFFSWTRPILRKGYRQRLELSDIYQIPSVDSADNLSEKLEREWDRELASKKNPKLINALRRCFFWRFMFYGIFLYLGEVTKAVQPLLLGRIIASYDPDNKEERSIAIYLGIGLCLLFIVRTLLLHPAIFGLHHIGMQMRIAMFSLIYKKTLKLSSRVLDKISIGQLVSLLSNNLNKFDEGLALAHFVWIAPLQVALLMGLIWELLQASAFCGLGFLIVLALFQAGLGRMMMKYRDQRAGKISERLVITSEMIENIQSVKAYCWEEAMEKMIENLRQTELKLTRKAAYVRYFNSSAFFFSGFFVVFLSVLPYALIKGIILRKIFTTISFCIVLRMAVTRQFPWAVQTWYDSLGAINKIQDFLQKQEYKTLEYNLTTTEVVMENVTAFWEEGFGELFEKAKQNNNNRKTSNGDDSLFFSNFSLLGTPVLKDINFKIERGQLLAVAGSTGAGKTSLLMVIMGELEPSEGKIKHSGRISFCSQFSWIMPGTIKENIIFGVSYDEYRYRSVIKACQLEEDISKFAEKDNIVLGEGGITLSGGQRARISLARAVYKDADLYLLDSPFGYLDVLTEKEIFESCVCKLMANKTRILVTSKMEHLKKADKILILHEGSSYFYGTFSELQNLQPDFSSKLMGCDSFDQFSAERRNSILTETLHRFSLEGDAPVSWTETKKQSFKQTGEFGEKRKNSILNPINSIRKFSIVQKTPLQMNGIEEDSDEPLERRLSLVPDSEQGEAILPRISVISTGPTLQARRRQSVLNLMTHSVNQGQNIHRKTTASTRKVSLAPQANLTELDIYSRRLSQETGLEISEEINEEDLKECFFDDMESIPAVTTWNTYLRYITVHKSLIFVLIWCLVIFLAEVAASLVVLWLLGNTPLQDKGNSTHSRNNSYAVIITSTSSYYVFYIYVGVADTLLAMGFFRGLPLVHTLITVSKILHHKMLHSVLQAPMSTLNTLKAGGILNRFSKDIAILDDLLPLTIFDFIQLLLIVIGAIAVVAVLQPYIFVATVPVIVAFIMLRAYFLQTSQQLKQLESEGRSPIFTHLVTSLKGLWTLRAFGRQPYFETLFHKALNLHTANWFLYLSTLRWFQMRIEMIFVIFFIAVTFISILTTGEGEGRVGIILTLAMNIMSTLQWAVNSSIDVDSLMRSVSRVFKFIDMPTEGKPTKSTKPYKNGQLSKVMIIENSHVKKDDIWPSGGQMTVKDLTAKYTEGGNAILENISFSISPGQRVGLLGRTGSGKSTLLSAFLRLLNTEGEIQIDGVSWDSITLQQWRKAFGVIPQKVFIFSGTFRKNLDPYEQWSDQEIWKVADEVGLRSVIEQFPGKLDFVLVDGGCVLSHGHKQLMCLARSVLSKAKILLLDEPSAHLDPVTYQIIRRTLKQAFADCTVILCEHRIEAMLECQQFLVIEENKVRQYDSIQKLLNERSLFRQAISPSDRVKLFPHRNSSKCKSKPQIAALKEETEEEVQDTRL
Experimental: as §1, with “CFTR channels were activated following patch excision by exposure of the cytoplasmic face of the patch to catalytic subunit of protein kinase A (PKA; 110 U/ml; Promega) and Mg-ATP (1.5 mM).” left out, “TES. The pH was adjusted to 7.3. Macroscopic currents were evoked using a ramp protocol from +80 to −80 mV with a 10 sec time period. Patches were held at −80 mV or +80 mV for micropatch (multichannel) recordings. All patch clamp experiments were performed at 21-23° C. Signals from macroscopic and single channel recording were filtered at 20 and 200 Hz, respectively. Data acquisition and analysis were performed using pCLAMP8 and pCLAMP9 software (Axon Instruments). Curve fitting for kinetic analysis was performed using Microcal Origin software. Averaged data are presented as mean +/−SEM. Statistical comparisons were made by performing unpaired t-tests unless otherwise indicated.” for “TES.”

[2] = Solubility limit on achievable dose; type: physicochemical; conditions: 200-400 μM doses impossible to achieve
ΔF508-CFTR [3] = molecular target: T1, ΔF508-CFTR (Homo sapiens, UniProt P13569, DEL508-508); test: Micropatch recording of HEK-293T patches expressing ΔF508-CFTR, opening rate and Po; type: biochemical
T1 construct: expressed in transfected cells; host or cells: HEK-293T, transient; grown at 28° C. for 24 hrs
T1 sequence (P13569 with tags, fused parts or gaps DEL508-508): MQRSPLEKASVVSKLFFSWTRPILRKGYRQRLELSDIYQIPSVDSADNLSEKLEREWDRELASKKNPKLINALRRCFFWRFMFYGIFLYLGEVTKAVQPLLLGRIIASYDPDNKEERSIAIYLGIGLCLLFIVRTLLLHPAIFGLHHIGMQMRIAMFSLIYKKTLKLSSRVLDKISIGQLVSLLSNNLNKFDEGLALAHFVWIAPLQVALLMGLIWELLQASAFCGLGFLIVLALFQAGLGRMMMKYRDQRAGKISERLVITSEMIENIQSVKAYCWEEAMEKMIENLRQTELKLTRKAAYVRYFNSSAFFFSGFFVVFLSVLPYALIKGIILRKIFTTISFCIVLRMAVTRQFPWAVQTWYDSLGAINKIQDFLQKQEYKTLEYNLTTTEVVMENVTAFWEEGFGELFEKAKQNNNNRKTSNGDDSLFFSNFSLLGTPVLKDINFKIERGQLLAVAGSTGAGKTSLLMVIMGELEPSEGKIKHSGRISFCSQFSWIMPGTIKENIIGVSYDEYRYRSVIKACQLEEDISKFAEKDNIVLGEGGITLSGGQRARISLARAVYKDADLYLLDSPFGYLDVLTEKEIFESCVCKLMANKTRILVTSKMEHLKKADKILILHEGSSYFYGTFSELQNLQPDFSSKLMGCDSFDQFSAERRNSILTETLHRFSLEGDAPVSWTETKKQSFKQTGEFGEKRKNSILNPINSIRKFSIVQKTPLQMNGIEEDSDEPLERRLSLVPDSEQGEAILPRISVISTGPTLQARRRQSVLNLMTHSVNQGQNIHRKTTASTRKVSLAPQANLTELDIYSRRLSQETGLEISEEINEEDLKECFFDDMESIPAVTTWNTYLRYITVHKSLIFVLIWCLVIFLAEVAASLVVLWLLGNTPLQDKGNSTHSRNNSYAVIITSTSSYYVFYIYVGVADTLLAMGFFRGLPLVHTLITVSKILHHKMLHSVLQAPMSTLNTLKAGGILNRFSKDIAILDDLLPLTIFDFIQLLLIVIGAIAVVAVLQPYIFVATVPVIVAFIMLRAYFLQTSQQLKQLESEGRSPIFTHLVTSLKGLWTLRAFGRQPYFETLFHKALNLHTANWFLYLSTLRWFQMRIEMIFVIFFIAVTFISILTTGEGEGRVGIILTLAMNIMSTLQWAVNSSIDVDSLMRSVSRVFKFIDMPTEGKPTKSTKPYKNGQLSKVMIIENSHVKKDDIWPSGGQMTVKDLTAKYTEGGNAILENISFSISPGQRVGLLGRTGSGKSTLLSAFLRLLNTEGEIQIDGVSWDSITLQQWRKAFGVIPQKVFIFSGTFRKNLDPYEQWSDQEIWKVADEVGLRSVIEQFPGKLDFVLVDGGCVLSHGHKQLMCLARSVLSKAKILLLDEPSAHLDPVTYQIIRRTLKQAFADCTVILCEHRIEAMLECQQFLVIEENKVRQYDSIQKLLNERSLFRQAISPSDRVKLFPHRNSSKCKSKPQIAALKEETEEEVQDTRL
Experimental: (§2) Cell culture DNA constructs and transfections. Baby hamster kidney (BHK) cells stably expressing wild type human CFTR (BHK-CFTR) were provided by J. Hanrahan (McGill University). BHK-CFTR cells were cultured in Dulbecco's modified Eagle's medium (DMEM (Mediatech)) supplemented with 5% fetal bovine serum (FBS) and 1 mM penicillin-streptomycin. The growth media for the BHK-CFTR cells also contained 0.5 mM methotrexate to maintain selection for CFTR-expressing cells (22). HEK-293T cells were transiently transfected with wild-type or mutant CFTR cDNA using the Lipofectamine transfection kit following manufacturer's recommendations (Invitrogen, Corp). HEK-293T cells were cultured in DMEM. All cells were grown on plastic coverslips for patch clamp recording and were used 2-3 days post-seeding. Electrophysiology and data analysis. Macroscopic and multi-channel currents were recorded in the excised, inside-out configuration. Patch pipettes were pulled from Corning 8161 glass to tip resistances of […] (macroscopic recordings) or 8-10 mOhm (micropatch studies). CFTR channels were activated following patch excision by exposure of the cytoplasmic face of the patch to catalytic subunit of protein kinase A (PKA; 110 U/ml; Promega) and Mg-ATP (1.5 mM). CFTR currents were recorded in symmetrical solution containing (in mM): 140 N-methyl-D-glucaniine-Cl, 3 MgCl2, 1 EGTA and 10 TES. The pH was adjusted to 7.3. Macroscopic currents were evoked using a ramp protocol from +80 to −80 mV with a 10 sec time period. Patches were held at −80 mV or +80 mV for micropatch (multichannel) recordings. All patch clamp experiments were performed at 21-23° C. Signals from macroscopic and single channel recording were filtered at 20 and 200 Hz, respectively. Data acquisition and analysis were performed using pCLAMP8 and pCLAMP9 software (Axon Instruments). Curve fitting for kinetic analysis was performed using Microcal Origin software. Averaged data are presented as mean +/−SEM. Statistical comparisons were made by performing unpaired t-tests unless otherwise indicated. Ussing Chamber Experiments-CFBE41o epithelial cells stably transfected with ΔF508-CFTR or transiently transfected with wild-type CFTR were cultured as electrically resistive monolayers and assayed in Ussing chambers as described (16). ΔF508-CFTR-expressing monolayers were grown at 27° C. for 2-3 days to enhance the surface expression of this temperature-sensitive mutant. A serosal-to-mucosal Cl^− gradient (120 to 1.2 mM) was imposed, followed by amiloride addition (100 μM) to block Na^+ currents. Compounds were added to both chambers at the indicated concentrations. A 3-mV voltage pulse was imposed every 100 s to monitor transepithelial resistance.

ΔF508-CFTR [4] = molecular target: T1, ΔF508-CFTR; test: Macroscopic currents in excised patches from temperature-corrected HEK-293T cells expressing ΔF508-CFTR; type: biochemical
Experimental: as §2

AR-S660A-CFTR = molecular target: T2, AR-S660A-CFTR (Homo sapiens, UniProt P13569, DEL708-835/S660A); test: Macroscopic currents in excised HEK-293T patches, R domain deletion mutant, no PKA; type: biochemical; conditions: 10 μM
T2 construct: expressed in transfected cells; host or cells: HEK-293T, transient
T2 sequence (P13569 with tags, fused parts or gaps S660A/DEL708-835): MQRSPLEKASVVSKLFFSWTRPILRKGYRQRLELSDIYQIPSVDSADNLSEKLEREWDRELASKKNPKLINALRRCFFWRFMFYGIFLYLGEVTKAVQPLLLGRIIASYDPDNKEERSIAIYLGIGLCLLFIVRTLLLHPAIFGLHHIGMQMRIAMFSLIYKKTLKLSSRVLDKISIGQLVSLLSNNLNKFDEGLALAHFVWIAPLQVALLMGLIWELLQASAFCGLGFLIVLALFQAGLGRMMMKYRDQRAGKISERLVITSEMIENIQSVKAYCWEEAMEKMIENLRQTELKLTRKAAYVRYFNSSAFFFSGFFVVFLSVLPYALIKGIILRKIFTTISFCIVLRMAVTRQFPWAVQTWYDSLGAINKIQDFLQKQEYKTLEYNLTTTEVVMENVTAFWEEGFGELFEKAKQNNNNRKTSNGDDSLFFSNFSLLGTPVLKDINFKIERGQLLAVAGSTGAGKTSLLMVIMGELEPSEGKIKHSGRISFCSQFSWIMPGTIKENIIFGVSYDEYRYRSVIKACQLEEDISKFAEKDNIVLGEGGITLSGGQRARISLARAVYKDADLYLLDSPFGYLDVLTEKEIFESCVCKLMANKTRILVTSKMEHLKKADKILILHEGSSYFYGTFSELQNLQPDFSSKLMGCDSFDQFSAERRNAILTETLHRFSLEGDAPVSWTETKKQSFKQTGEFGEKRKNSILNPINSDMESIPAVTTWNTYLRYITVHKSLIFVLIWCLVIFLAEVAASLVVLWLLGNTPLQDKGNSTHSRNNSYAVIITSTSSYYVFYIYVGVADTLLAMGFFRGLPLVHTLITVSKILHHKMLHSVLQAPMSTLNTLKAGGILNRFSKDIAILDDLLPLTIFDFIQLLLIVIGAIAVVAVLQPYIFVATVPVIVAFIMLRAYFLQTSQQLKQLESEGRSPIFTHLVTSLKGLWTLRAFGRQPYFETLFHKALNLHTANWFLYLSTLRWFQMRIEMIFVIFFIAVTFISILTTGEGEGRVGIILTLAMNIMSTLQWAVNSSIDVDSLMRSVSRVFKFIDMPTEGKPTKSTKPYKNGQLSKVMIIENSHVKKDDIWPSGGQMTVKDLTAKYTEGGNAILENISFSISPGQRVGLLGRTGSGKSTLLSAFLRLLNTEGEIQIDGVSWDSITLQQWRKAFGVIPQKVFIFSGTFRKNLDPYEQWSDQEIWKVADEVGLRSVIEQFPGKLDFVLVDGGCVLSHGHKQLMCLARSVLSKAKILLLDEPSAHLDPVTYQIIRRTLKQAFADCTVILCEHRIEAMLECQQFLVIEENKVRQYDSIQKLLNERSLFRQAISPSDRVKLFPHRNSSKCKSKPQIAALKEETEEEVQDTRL
Experimental: as §1

CFTR-minus cells = test: Currents across patches excised from CFTR-minus (untransfected) cells; type: biochemical
Experimental: as §2

[5] = 10 μM, poorly phosphorylated, −80 mV, best guess estimate, mean±S.E., n=7
[6] = 10 μM, high PKA, 1.5 mM MgATP, −80 mV, best guess estimate, mean±S.E., n=4

NC(=O)c1cc([N+](=O)[O-])ccc1NCCCc1ccccc1 [NPPB-Am]
increase in transepithelial current [1]: 1.1+/−2.7 μA/cm^2 | mean single channel opening rate, post compound (wild-type CFTR; [5]): 1.07±0.29 openings/s/channel | single channel Po, post compound (wild-type CFTR; [5]): 0.26±0.06 | effect on opening rates and mean single channel open probabilities (Pos) (wild-type CFTR; poorly phosphorylated (2 U/ml PKA), fewer than 10 channels per patch): markedly increased the opening rates and mean single channel open probabilities | solubility relative to NPPB [2]: less soluble | mean single channel opening rate, post compound (ΔF508-CFTR [3]; [6]): 0.87±0.31 openings/s/channel | single channel Po, post compound (ΔF508-CFTR [3]; [6]): 0.25±0.07 | simultaneous openings after compound addition (ΔF508-CFTR [3]; 10 μM, representative micropatch, no more than 2 before addition): 12-15 | effect on ΔF508-CFTR channel opening rate (ΔF508-CFTR [3]; fewer than 10 detectable channels per patch): large increase in channel opening rate | increase in ΔF508-CFTR macroscopic currents (ΔF508-CFTR [4]; 10 μM, 1.5 mM Mg-ATP and 110 U/ml PKA): 10-15 fold | effect on ΔF508-CFTR macroscopic currents (ΔF508-CFTR [4]; 10 μM, high PKA 110 U/ml without PKI): dramatically stimulated | effect on ΔF508-CFTR channel activity in the absence of active kinase (ΔF508-CFTR [4]; added after PKI): markedly stimulated | effect on currents in the absence of PKA (AR-S660A-CFTR): markedly stimulate | effect on currents across membrane patches excised from CFTR-minus cells (CFTR-minus cells; data not shown): no effect | effect on currents across a patch from untransfected HEK-293T cells (CFTR-minus cells; untransfected HEK-293T): neither
